The results in this text go back to patent US20250368647A1, “NITROGEN CONTAINING CONDENSED 2,3-DIHYDROQUINAZOLINONE COMPOUNDS AS NAV1.8 INHIBITORS” (GLAXOSMITHKLINE INTELLECTUAL PROPERTY DEVELOPMENT LIMITED, priority 2022, published 2025).

The target in this assay is human Nav1.8 (Homo sapiens (Human), UniProt Q9Y5Y9). Kind of assay: QPatch 48 HTX voltage-clamp electrophysiology, half inactivation state (V1/2) protocol, HEK293-Nav1.8 cells. The format is cell-based. Particulars: HEK293 cells expressing human Nav1.8, human Navβ1 and human TREK1, P2 current. The method, boiled down:
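HEK293 cells co-expressing Navβ1 and TREK1 were voltage-clamped from −100 mV: a 20 ms step to 0 mV, 8 s inactivation at −46 mV, 20 ms at −100 mV, then a 20 ms P2 test step to 0 mV, repeated every 15 s. P2 current was normalized to vehicle and full block, corrected for run-down, and Hill-fitted (4–6 concentrations) for IC50.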
On the technique in general: The patch-clamp technique gives a direct electrical read-out from membranes.

The structures appear in SMILES notation. Where a name gives a salt, the structure may show the parent alone.

Chain of human Nav1.8 (Q9Y5Y9 whole entry): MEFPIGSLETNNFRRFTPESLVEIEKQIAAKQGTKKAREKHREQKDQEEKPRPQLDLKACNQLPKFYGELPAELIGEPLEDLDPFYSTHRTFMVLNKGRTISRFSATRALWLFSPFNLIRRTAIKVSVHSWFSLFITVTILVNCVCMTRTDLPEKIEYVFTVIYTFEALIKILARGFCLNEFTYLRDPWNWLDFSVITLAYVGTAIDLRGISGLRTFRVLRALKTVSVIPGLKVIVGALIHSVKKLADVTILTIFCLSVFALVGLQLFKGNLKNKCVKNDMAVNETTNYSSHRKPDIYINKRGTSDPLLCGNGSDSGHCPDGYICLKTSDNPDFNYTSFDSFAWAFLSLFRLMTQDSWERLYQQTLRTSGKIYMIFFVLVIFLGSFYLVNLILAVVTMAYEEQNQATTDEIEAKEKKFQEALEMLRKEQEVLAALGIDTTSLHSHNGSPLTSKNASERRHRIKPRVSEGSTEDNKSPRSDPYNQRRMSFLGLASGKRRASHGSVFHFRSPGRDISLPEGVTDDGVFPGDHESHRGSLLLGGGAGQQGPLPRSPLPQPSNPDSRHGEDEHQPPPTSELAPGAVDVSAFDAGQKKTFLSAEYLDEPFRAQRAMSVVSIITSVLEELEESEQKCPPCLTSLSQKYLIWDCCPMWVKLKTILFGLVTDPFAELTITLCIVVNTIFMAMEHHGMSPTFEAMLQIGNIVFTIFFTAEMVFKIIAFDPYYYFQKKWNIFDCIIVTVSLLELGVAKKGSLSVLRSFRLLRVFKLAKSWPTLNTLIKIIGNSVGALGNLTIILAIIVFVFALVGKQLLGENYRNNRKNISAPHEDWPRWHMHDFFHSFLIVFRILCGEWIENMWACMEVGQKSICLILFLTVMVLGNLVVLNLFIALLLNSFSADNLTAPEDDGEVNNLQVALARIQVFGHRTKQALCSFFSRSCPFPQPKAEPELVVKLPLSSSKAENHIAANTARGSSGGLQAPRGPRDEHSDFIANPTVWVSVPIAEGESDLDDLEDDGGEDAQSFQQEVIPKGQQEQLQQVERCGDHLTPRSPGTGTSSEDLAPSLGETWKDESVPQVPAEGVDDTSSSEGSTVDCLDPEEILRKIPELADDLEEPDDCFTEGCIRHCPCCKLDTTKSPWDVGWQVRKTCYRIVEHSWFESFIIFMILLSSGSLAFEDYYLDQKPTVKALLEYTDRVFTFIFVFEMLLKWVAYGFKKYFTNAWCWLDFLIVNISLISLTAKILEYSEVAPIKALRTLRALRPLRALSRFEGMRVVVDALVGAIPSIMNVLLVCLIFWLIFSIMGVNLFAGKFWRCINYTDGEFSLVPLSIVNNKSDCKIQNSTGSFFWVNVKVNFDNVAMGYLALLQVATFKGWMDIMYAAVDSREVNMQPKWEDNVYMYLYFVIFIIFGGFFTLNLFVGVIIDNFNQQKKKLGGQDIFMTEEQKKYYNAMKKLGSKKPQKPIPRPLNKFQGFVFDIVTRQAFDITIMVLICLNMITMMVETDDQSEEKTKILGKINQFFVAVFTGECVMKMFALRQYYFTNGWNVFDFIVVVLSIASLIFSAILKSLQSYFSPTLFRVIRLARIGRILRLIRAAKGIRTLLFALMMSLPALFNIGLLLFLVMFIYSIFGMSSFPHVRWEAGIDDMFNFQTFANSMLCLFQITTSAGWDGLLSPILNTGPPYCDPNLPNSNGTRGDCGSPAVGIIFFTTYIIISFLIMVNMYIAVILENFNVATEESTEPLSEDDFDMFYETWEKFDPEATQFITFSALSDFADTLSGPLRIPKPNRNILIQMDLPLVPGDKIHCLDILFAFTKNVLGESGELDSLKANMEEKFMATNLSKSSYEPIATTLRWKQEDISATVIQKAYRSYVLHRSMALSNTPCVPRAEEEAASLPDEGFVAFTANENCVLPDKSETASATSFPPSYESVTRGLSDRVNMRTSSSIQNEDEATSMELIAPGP
Chain of human Nav1.8 (Q07699 19-218 partner): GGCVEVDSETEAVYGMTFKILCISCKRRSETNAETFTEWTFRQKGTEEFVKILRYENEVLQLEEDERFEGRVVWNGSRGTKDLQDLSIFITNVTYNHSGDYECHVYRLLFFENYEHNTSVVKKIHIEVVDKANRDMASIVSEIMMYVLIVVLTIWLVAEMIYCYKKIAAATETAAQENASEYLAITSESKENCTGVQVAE

In the case of `O=C1c2cc(C(F)(F)F)c(F)cc2N2CN1c1ccc(=O)[nH]c1NCCCc1cc(F)ccc12` [Example 90, 3,8-Difluoro-2-(trifluoromethyl)-10,11,12,13-tetrahydro-19H-5,18-methanodibenzo[f,i]-pyrido[2,3-b][1,4,8]triazacyclotridecine-15,19(14H)-dione], the “Nav1.8, pIC50” value came out at 7.7.
In the case of `CC1NCCc2[nH]c(=O)ccc2N2CN(c3cc(Cl)c(F)cc3C2=O)c2ccc(F)cc21` (racemic) [Example 120, 3-Chloro-2,8-difluoro-10-methyl-10,11,12,13-tetrahydro-19H-5,18-methanodibenzo[c,f]pyrido-[3,2-j][1,5,9]triazacyclotridecine-15,19(14H)-dione hydrochloride], the “Nav1.8, pIC50” value was 7.
With `N#Cc1cc2c(cc1F)C(=O)N1CN2c2ccc(F)c(F)c2CNCCc2[nH]c(=O)ccc21` [Example 57, 2,8,9-Trifluoro-15,19-dioxo-10,11,12,13,14,15-hexahydro-19H-5,18-methano-dibenzo[c,f]pyrido[3,2-j][1,5,9]triazacyclotridecine-3-carbonitrile], the “Nav1.8, pIC50” value worked out at 7.4.
In the case of `Cl.N#Cc1cc2c(cc1Cl)C(=O)N1CN2c2ccc(F)cc2CCCNc2[nH]c(=O)ccc21` [Example 100, 2-Chloro-8-fluoro-15,19-dioxo-10,11,12,13,14,15-hexahydro-19H-5,18-methano-dibenzo[f,i]pyrido[2,3-b][1,4,8]triazacyclotridecine-3-carbonitrile, hydrochloride], the “Nav1.8, pIC50” value stood at 7.5.
Regarding `O=C1c2cc(F)c(F)cc2N2CN1c1ccc(=O)[nH]c1CCNCc1c2ccc(F)c1O.O=CO` [Example 84, 2,3,8-Trifluoro-9-hydroxy-10,11,12,13-tetrahydro-19H-5,18-methanodibenzo-[c,f]pyrido[3,2-j][1,5,9]triazacyclotridecine-15,19(14H)-dione, formic acid salt], the “Nav1.8, pIC50” value came out at 5.5.
Regarding `O=C1c2cc(Cl)c(F)cc2N2CN1c1ccc(=O)[nH]c1CCNCc1cc(F)ccc12` [Example 43, 2-Chloro-3,8-difluoro-10,11,12,13-tetrahydro-19H-5,18-methanodibenzo[c,f]pyrido[3,2-f][1,5,9]triazacyclotridecine-15,19(14H)-dione], the “Nav1.8, pIC50” value is reported as 7.4.
On the same count and under the same terms, under `CC1(C)CNCc2cc(F)ccc2N2CN(C(=O)c3cc(F)c(C(F)(F)F)cc32)c2ccc(=O)[nH]c21` [Example 134, 2,8-Difluoro-13,13-dimethyl-3-(trifluoromethyl)-10,11,12,13-tetrahydro-19H-5,18-methanodibenzo[c,f]pyrido[3,2-j][1,5,9]triazacyclotridecine-15,19(14H)-dione] stands 7.3; under `C[C@H]1NCCc2[nH]c(=O)ccc2N2CN(c3cc(Cl)c(F)cc3C2=O)c2ccc(F)cc21` [Example 121, (10R)-3-chloro-2,8-difluoro-10-methyl-10,11,12,13-tetrahydro-19H-5,18-methanodibenzo[c,f]pyrido[3,2-j][1,5,9]triazacyclotridecine-15,19(14H)-dione], 7.4.
On the same count and under the same terms, under `O=C1c2cc(F)c(C(F)(F)F)cc2N2CN1c1ccc(=O)[nH]c1NCCCc1cc(F)ccc12` [Example 32, 2,8-Difluoro-3-(trifluoromethyl)-10,11,12,13-tetrahydro-19H-5,18-methanodibenzo[f,i]pyrido[2,3,-b][1,4,8]triazacyclotridecine-15,19(14H)-dione] stands 8.4; under `O=C1c2cc(C(F)(F)F)cnc2N2CN1c1ccc(=O)[nH]c1NCCCc1cc(F)ccc12` [Example 34, 8-Fluoro-2-(trifluoromethyl)-10,11,12,13-tetrahydro-19H-5,18-methanodibenzo[i]dipyrido[2,3,-b:3′,2′-f][1,4,8]triazacyclotridecine-15,19(14H)-dione], 6.4; under `O=C1c2ccc(C(F)(F)F)cc2N2CN1c1ccc(=O)[nH]c1CCCCCc1cc(F)ccc12` [Example 8, 3^4-Fluoro-2^7-(trifluoromethyl)-1^1,1^2,2^1,2^2,2^3,2^4-hexahydro-2(3,1)-quinazolina-1(5,6)-pyridina-3(1,2)-benzenacyclooctaphane-1^2,2^4-dione], 8.4.
For the compound `Cl.O=C1c2cc(F)c(C(F)(F)F)cc2N2CN1c1ccc(=O)[nH]c1CCCNCc1c2ccc(F)c1F` [Example 108, 2^6,3^3,3^4-trifluoro-2^7-(trifluoromethyl)-1^1,1^2,2^1,2^2,2^3,2^4-hexahydro-5-aza-2(3,1)-quinazolina-1(5,6)-pyridina-3(1,2)-benzenacyclooctaphane-1^2,2^4-dione hydrochloride], the “Nav1.8, pIC50” value is reported as 7.6.
Take `N#Cc1cc2c(cc1F)C(=O)N1CN2c2ccc(F)cc2CCCNc2[nH]c(=O)ccc21` [Example 95, 2,8-Difluoro-15,19-dioxo-10,11,12,13,14,15-hexahydro-19H-5,18-methanodibenzo[f,i]pyrido-[2,3-b][1,4,8]triazacyclotridecine-3-carbonitrile]: the “Nav1.8, pIC50” value is reported as 7.5.
Consider `C[C@H]1NCCc2[nH]c(=O)ccc2N2CN(c3cc(C(F)(F)F)c(F)cc3C2=O)c2ccc(F)cc21` [Example 118, (10R)-2,8-difluoro-10-methyl-3-(trifluoromethyl)-10,11,12,13-tetrahydro-19H-5,18-methanodibenzo[c,f]pyrido[3,2-j][1,5,9]triazacyclotridecine-11(10H)-dione], for which the IC50 (read-out: Nav1.8, pIC50 (converted)) is 31.6 nM.
For the compound `Cl.O=C1c2cc(F)c(C(F)(F)F)cc2N2CN1c1ccc(=O)[nH]c1CCCNCc1cc(F)ccc12` [Example 107, 2^6,3^4-Difluoro-2^7-(trifluoromethyl)-1^1,1^2,2^1,2^2,2^3,2^4-hexahydro-5-aza-2(3,1)-quinazolina-1(5,6)-pyridina-3(1,2)-benzenacyclooctaphane-1^2,2^4-dione hydrochloride], the “Nav1.8, pIC50” value is given as 7.3.
For `N#Cc1cc2c(cc1F)C(=O)N1CN2c2ccc(F)c(F)c2CCCNc2[nH]c(=O)ccc21` [Example 99, 2,8,9-Trifluoro-15,19-dioxo-10,11,12,13,14,15-hexahydro-19H-5,18-methano-dibenzo [f,i]pyrido[2,3-b][1,4,8]triazacyclotridecine-3-carbonitrile], the “Nav1.8, pIC50” value is 7.7.
As for `O=C1c2ccc(C(F)(F)F)cc2N2CN1c1ccc(=O)[nH]c1CCCCc1cc(F)ccc12` [Example 6, 8-fluoro-3-(trifluoromethyl)-10,11,12,13-tetrahydro-19H-5,18-methanodibenzo[b,l]pyridino[3,2-f][1,5]diazacyclotridecine-15,19(14H)-dione], the “Nav1.8, pIC50” value was found to be 7.1.
On the same count and under the same terms, under `C[C@@H]1NCCc2[nH]c(=O)ccc2N2CN(c3cc(Cl)c(F)cc3C2=O)c2ccc(F)cc21` [Example 122, (10S)-3-chloro-2,8-difluoro-10-methyl-10,11,12,13-tetrahydro-19H-5,18-methanodibenzo[c,f]pyrido[3,2-j][1,5,9]triazacyclotridecine-15,19(14H)-dione] stands 5.9; under `O=C1c2cc(C(F)(F)F)ccc2N2CN1c1ccc(=O)[nH]c1NCCCc1cc(F)c(F)cc12` [Example 39, 7,8-Difluoro-2-(trifluoromethyl)-10,11,12,13-tetrahydro-19H-5,18-methanodibenzo[f,i]dipyrido[2,3,-b][1,4,8]triazacyclotridecine-15,19(14H)-dione], 7.0; under `Cl.O=C1c2cc(F)c(F)cc2N2CN1c1ccc(=O)[nH]c1CCNCc1c2ccc(F)c1Cl` [Example 64, 9-Chloro-2,3,8-trifluoro-10,11,12,13-tetrahydro-19H-5,18-methanodibenzo[c,f]pyrido[3,2-i][1,5,9]triazacyclotridecine-15,19(14H)-dione hydrochloride], 8.2.
In the case of `O=C1c2ccc(C(F)(F)F)cc2N2CN1c1ccc(=O)[nH]c1NCCCCc1cc(F)ccc12` [Example 12, 3^4-Fluoro-2^7-(trifluoromethyl)-1^1,1^2,2^1,2^2,2^3,2^4-hexahydro-8-aza-2(3,1)-quinazolina-1(5,6)-pyridina-3(1,2)-benzenacyclooctaphane-1^2,2^4-dione], the “Nav1.8, pIC50” value stood at 7.6.
The same measure, in the same setting: under `O=C1c2cc(OC(F)(F)F)ccc2N2CN1c1ccc(=O)[nH]c1NCCCc1cc(F)ccc12` [Example 31, 8-Fluoro-2-(trifluoromethoxy)-10,11,12,13-tetrahydro-19H-5,18-methanodibenzo[f,i]pyrido[2,3,-b][1,4,8]triazacyclotridecine-15,19(14H)-dione] stands 7.5; under `Cl.O=C1c2cc(F)c(F)cc2N2CN1c1ccc(=O)[nH]c1CCNCc1c(C(F)F)cccc12` [Example 79, 9-(Difluoromethyl)-2,3-difluoro-10,11,12,13-tetrahydro-19H-5,18-methanodibenzo[c,f]pyrido[3,2-j][1,5,9]triazacyclotridecine-15,19(14H)-dione hydrochloride], 7.1; under `O=C1c2cc(F)c(Cl)cc2N2CN1c1ccc(=O)[nH]c1CCNCc1c2ccc(F)c1F` [Example 50, 3-Chloro-2,8,9-trifluoro-10,11,12,13-tetrahydro-19H-5,18-methanodibenzo-[c,f]pyrido[3,2-j][1,5,9]triazacyclotridecine-15,19(14H)-dione], 8.
With `Cl.O=C1c2cc(F)c(F)cc2N2CN1c1ccc(=O)[nH]c1CCCNCc1c2ccc(F)c1Cl` [Example 109, 3^3-Chloro-2^6,2^7,3^4-trifluoro-1^1,1^2,2^1,2^2,2^3,2^4-hexahydro-5-aza-2(3,1)-quinazolina-1(5,6)-pyridina-3(1,2)-benzenacyclooctaphane-1^2,2^4-dione hydrochloride], the “Nav1.8, pIC50” value amounted to 6.8.
